In ChEMBL document CHEMBL1129920, “Cyclic homopentapeptides 2. Synthetic modifications of viomycin” (1997):
In brackets after ≈: the same amount, converted by molar mass.

What was measured:
Type in all cases: functional
[1] = tested on: Escherichia coli; assay: In vitro inhibition of Escherichia coli growth.
[2] = tested on: Pasteurella multocida; assay: In vitro inhibition of Pasteurella multocida growth.
[3] = tested on: Staphylococcus aureus; assay: In vitro inhibition of MRSA growth.

Row | MIC [1] [µg/mL] | MIC [2] [µg/mL] | MIC [3] [µg/mL] | SMILES
1 | 50 (≈ 61.1 µM) | 25 (≈ 30.5 µM) |  | NCCC[C@H](N)CC(=O)NC1CNC(=O)[C@@H](C2CC(NC(=O)OCc3ccccc3)N=C(N)N2)NC(=O)/C(=C/NC(N)=O)NC(=O)[C@@H](CO)NC(=O)[C@@H](CO)NC1=O (some centres undefined)
2 | 25 (≈ 28.6 µM) | 12.5 (≈ 14.3 µM) |  | CC(C)(C)c1ccc(COC(=O)NC2CC([C@H]3NC(=O)/C(=C/NC(N)=O)NC(=O)[C@@H](CO)NC(=O)[C@@H](CO)NC(=O)C(NC(=O)C[C@@H](N)CCCN)CNC3=O)N=C(N)N2)cc1 (some centres undefined)
3 | 12.5 (≈ 14.3 µM) | 3.13 (≈ 3.59 µM) |  | NCCC[C@H](N)CC(=O)NC1CNC(=O)[C@@H](C2CC(NC(=O)OCc3ccc(Cl)cc3F)N=C(N)N2)NC(=O)/C(=C/NC(N)=O)NC(=O)[C@@H](CO)NC(=O)[C@@H](CO)NC1=O (some centres undefined)
4 | 12.5 (≈ 14.1 µM) | 3.13 (≈ 3.53 µM) |  | NCCC[C@H](N)CC(=O)NC1CNC(=O)[C@@H](C2CC(NC(=O)NCc3ccc(Cl)c(Cl)c3)N=C(N)N2)NC(=O)/C(=C/NC(N)=O)NC(=O)[C@@H](CO)NC(=O)[C@@H](CO)NC1=O (some centres undefined)
5 | 25 (≈ 28.1 µM) | 3.12 (≈ 3.51 µM) |  | NCCC[C@H](N)CC(=O)NC1CNC(=O)[C@@H](C2CC(SCCN)NC(N)=N2)NC(=O)/C(=C/NC(=O)Nc2ccc(Cl)c(Cl)c2)NC(=O)[C@@H](CO)NC(=O)[C@@H](CO)NC1=O (some centres undefined)
6 | 12.5 (≈ 13.2 µM) | 3.13 (≈ 3.31 µM) | 12.5 (≈ 13.2 µM) | NCCC[C@H](N)CC(=O)NC1CNC(=O)[C@@H](C2CC(NC(=O)OCc3ccc(I)cc3)N=C(N)N2)NC(=O)/C(=C/NC(N)=O)NC(=O)[C@@H](CO)NC(=O)[C@@H](CO)NC1=O (some centres undefined)
7 | 50 (≈ 51.2 µM) | 6.25 (≈ 6.4 µM) |  | CC(=O)N(C1CC([C@H]2NC(=O)/C(=C/NC(=O)Nc3ccc(Cl)c(Cl)c3)NC(=O)[C@@H](CO)NC(=O)[C@@H](CO)NC(=O)C(NC(=O)C[C@@H](N)CCCN)CNC2=O)N=C(N)N1)[C@H](CS)C(=O)O (some centres undefined)
8 | 3.13 (≈ 3.03 µM) | 6.25 (≈ 6.05 µM) | 12.5 (≈ 12.1 µM) | NCCC[C@H](N)CC(=O)NC1CNC(=O)[C@@H](C2CC(NC(=O)OCc3ccc(Cl)cc3Cl)N=C(N)N2)NC(=O)/C(=C/NC(=O)Nc2ccc(Cl)c(Cl)c2)NC(=O)[C@@H](CO)NC(=O)[C@@H](CO)NC1=O (some centres undefined)
9 | 25 (≈ 28.2 µM) | 6.25 (≈ 7.04 µM) | 3.12 (≈ 3.51 µM) | NCCC[C@H](N)CC(=O)NC1CNC(=O)[C@@H](C2CC(NC(=O)OCc3ccc(Cl)c(Cl)c3)N=C(N)N2)NC(=O)/C(=C/NC(N)=O)NC(=O)[C@@H](CO)NC(=O)[C@@H](CO)NC1=O (some centres undefined)
10 | 6.25 (≈ 6.62 µM) | 6.25 (≈ 6.62 µM) | 12.5 (≈ 13.2 µM) | NCCC[C@H](N)CC(=O)NC1CNC(=O)[C@@H](C2CC(NC(=O)OCc3cccc(I)c3)N=C(N)N2)NC(=O)/C(=C/NC(N)=O)NC(=O)[C@@H](CO)NC(=O)[C@@H](CO)NC1=O (some centres undefined)
11 | 50 (≈ 60.2 µM) | 3.12 (≈ 3.76 µM) |  | NCCC[C@H](N)CC(=O)NC1CNC(=O)[C@@H](C2CC(O)N=C(N)N2)NC(=O)/C(=C/NC(=O)Nc2ccc(Cl)c(Cl)c2)NC(=O)[C@@H](CO)NC(=O)[C@@H](CO)NC1=O (some centres undefined)
12 | 200 (≈ 238 µM) | 200 (≈ 238 µM) |  | Cc1ccc(S(=O)(=O)NC2CC([C@H]3NC(=O)/C(=C/NC(N)=O)NC(=O)[C@@H](CO)NC(=O)[C@@H](CO)NC(=O)C(NC(=O)C[C@@H](N)CCCN)CNC3=O)N=C(N)N2)cc1 (some centres undefined)
13 |  |  | 25 (≈ 27.8 µM) | NCCC[C@H](N)CC(=O)NC1CNC(=O)[C@@H](C2CC(NC(=O)NCc3ccc(C4CCCCC4)cc3)N=C(N)N2)NC(=O)/C(=C/NC(N)=O)NC(=O)[C@@H](CO)NC(=O)[C@@H](CO)NC1=O (some centres undefined)
14 | 25 (≈ 26.8 µM) | 3.12 (≈ 3.34 µM) |  | NCCC[C@H](N)CC(=O)NC1CNC(=O)[C@@H](C2CC(N[C@H](CS)C(=O)O)N=C(N)N2)NC(=O)/C(=C/NC(=O)Nc2ccc(Cl)c(Cl)c2)NC(=O)[C@@H](CO)NC(=O)[C@@H](CO)NC1=O (some centres undefined)
15 | 12.5 (≈ 13.1 µM) | 12.5 (≈ 13.1 µM) |  | COc1ccc(C2CC([C@H]3NC(=O)/C(=C/NC(=O)Nc4ccc(Cl)c(Cl)c4)NC(=O)[C@@H](CO)NC(=O)[C@@H](CO)NC(=O)C(NC(=O)C[C@@H](N)CCCN)CNC3=O)N=C(N)N2)cc1OC (some centres undefined)
16 | 6.25 (≈ 7.16 µM) | 1.56 (≈ 1.79 µM) | 25 (≈ 28.6 µM) | NCCC[C@H](N)CC(=O)NC1CNC(=O)[C@@H](C2CC(NC(=O)Nc3ccc(Cl)c(Cl)c3)N=C(N)N2)NC(=O)/C(=C/NC(N)=O)NC(=O)[C@@H](CO)NC(=O)[C@@H](CO)NC1=O (some centres undefined)
17 | 12.5 (≈ 13.5 µM) | 12.5 (≈ 13.5 µM) |  | NCCC[C@H](N)CC(=O)NC1CNC(=O)[C@@H](C2CC(c3ccc(O)c(O)c3)N=C(N)N2)NC(=O)/C(=C/NC(=O)Nc2ccc(Cl)c(Cl)c2)NC(=O)[C@@H](CO)NC(=O)[C@@H](CO)NC1=O (some centres undefined)
18 | 25 (≈ 28.2 µM) | 3.13 (≈ 3.53 µM) | 12.5 (≈ 14.1 µM) | NCCC[C@H](N)CC(=O)NC1CNC(=O)[C@@H](C2CC(NC(=O)OCc3cccc(Cl)c3Cl)N=C(N)N2)NC(=O)/C(=C/NC(N)=O)NC(=O)[C@@H](CO)NC(=O)[C@@H](CO)NC1=O (some centres undefined)
19 | 200 (≈ 292 µM) | 200 (≈ 292 µM) |  | NCCC[C@H](N)CC(=O)NC1CNC(=O)[C@@H](C2CC(O)N=C(N)N2)NC(=O)/C(=C/NC(N)=O)NC(=O)[C@@H](CO)NC(=O)[C@@H](CO)NC1=O (some centres undefined)
20 | > 200 | > 200 |  | COc1ccc(C2CC([C@H]3NC(=O)/C(=C/NC(N)=O)NC(=O)[C@@H](CO)NC(=O)[C@@H](CO)NC(=O)C(NC(=O)C[C@@H](N)CCCN)CNC3=O)N=C(N)N2)cc1OC (some centres undefined)
21 | 200 (≈ 257 µM) | 200 (≈ 257 µM) |  | NCCC[C@H](N)CC(=O)NC1CNC(=O)[C@@H](C2CC(c3ccc(O)c(O)c3)N=C(N)N2)NC(=O)/C(=C/NC(N)=O)NC(=O)[C@@H](CO)NC(=O)[C@@H](CO)NC1=O (some centres undefined)
22 | 25 (≈ 26.4 µM) | 3.12 (≈ 3.29 µM) |  | CSC[C@@H](NC1CC([C@H]2NC(=O)/C(=C/NC(=O)Nc3ccc(Cl)c(Cl)c3)NC(=O)[C@@H](CO)NC(=O)[C@@H](CO)NC(=O)C(NC(=O)C[C@@H](N)CCCN)CNC2=O)N=C(N)N1)C(=O)O (some centres undefined)
23 |  |  | 12.5 (≈ 13.9 µM) | NCCC[C@H](N)CC(=O)NC1CNC(=O)[C@@H](C2CC(NC(=O)NCc3cccc(C4CCCCC4)c3)N=C(N)N2)NC(=O)/C(=C/NC(N)=O)NC(=O)[C@@H](CO)NC(=O)[C@@H](CO)NC1=O (some centres undefined)
24 | 6.25 (≈ 6.14 µM) | 6.25 (≈ 6.14 µM) | 25 (≈ 24.6 µM) | NCCC[C@H](N)CC(=O)NC1CNC(=O)[C@@H](C2CC(NC(=O)Nc3ccc(Cl)c(Cl)c3)N=C(N)N2)NC(=O)/C(=C/NC(=O)Nc2ccc(Cl)c(Cl)c2)NC(=O)[C@@H](CO)NC(=O)[C@@H](CO)NC1=O (some centres undefined)

Row | SMILES | MIC [1] [µg/mL] | MIC [2] [µg/mL] | MIC [3] [µg/mL]
25 | CN[C@H](CC(C)C)C(=O)N[C@H]1C(=O)N[C@@H](CC(N)=O)C(=O)N[C@H]2C(=O)N[C@H]3C(=O)N[C@H](C(=O)N[C@H](C(=O)O)c4cc(O)cc(O)c4-c4cc3ccc4O)[C@H](O)c3ccc(c(Cl)c3)Oc3cc2cc(c3O[C@@H]2O[C@H](CO)[C@@H](O)[C@H](O)[C@H]2O[C@H]2C[C@](C)(N)[C@H](O)[C@H](C)O2)Oc2ccc(cc2Cl)[C@H]1O [VANCOMYCIN] |  |  | 0.78 (≈ 0.538 µM)
